Reference: patent US20240335431A1, “1-H-PYRROLO[2,3-c]PYRIDINE COMPOUNDS” (Acerta Pharma B.V., priority 2023, published 2024)
Read-outs that look alike come from different tables or passages of the source.

Legend:
[1] = system: MOLM-13 cells; assay: Proliferation assay, MOLM-13 (CellTiter-Glo, 7 days); format: cell-based, human
Experimental: (§1) The anti-proliferative effect of compounds was tested in human leukaemia cell lines. The cell lines […] and MV4; 11 each harbor an MLL translocation expressing the MLL fusion proteins MLL-AF9 and MLL-AF4, respectively. Each also express the wildtype protein from the second allele. OCI-AML3 cells carrying the NPM1c gene mutation were also tested.
(§2) MOLM-13 and HEL cells were cultured in RPMI 1640 (Gibco) supplemented with 10% FBS (Gibco) and 1% Pen/Strep (Gibco). MV4; 11 cells were cultured in IMDM (Gibco) supplemented with 10% FBS (Gibco) and 1% Pen/Strep (Gibco). OCI-AML3 cells were cultured in MEMa (Gibco) supplemented with 20% FBS (Gibco) and 1% Pen/Strep (Gibco).
(§3) To assess proliferative effects, 125 MOLM-13 cells, 300 MV4; 11 cells, 75 OCI-AML3 cells, and 200 HEL cells were seeded in 40 μL media per well in 384-well ViewPlates (Perkin Elmer, 6007480). Cell seeding numbers were chosen based on growth curves to ensure linear growth throughout the experiments. Test compounds were added at 3.16-fold serial dilutions in DMSO from […] and DMSO content was normalized to 0.1%. Cells were incubated for 7 days at 37° C. and 5% CO2. A day 0 plate was seeded for each cell line and used as a standard control.
(§4) To measure cell viability, CellTiter-Glo 2.0 (Promega, G9242) luminescent growth indicator was used. 10 μL CellTiter-Glo reagent was added per well. Plates were placed on a plate shaker for 2 minutes in the dark and left to incubate off the shaker for another 8 minutes in the dark, for a total of 10 minutes. Plates were read using an EnVision plate reader (Perkin Elmer) using the Luminescence aperture and a measurement time of 0.1 second.
(§5) Data were analyzed in Genedata Screener®. IC50 values were determined by plotting % inhibition versus log compound concentration and using a one site dose response model. Raw data signals were normalized using 0.1% DMSO media only as background control, 0.1% DMSO with cells no compound as 100% viability (maximum signal), and day 0 0.1% DM with cells no compound as 0% viability (minimum signal).

[2] = Human liver microsomes (HLMs) intrinsic clearance assay; format: in vitro ADME; conditions: human, microsomes; for HLM CLint: 1 µM, pH 7.4
Experimental: Human liver microsomes (HLMs) were obtained from Corning (UltraPool 150 donors) at a concentration of 20 mg/mL protein. HLMs were stored at −80° C. until use and prior to use, thawed in a 37° C. water bath and then stored on wet ice. DMSO and NADPH were sourced from Solarbio S&T Co Ltd.
2 mL of 10 mM DMSO stock solutions of test compound were added to 198 mL acetonitrile to produce […] concentration. 1325 mL of 20 mg/mL HLM were added to 22260 mL of phosphate buffer to produce the HLM mixture. An 8.334 mg/mL solution of NADPH was prepared in 100 mmol/L pH 7.4 phosphate buffer.
222.5 mL of the HLM mixture and 25 mL of the 10 mM NADPH were added into the incubation plates (1 mL 96 well deep well plate from Thermo). The mixture was vortexed for 10 seconds at 1000 rpm. The incubation plate was pre-warmed in a water bath at 37° C. for 8 minutes. 2.5 mL of the […] stocks of test compound was added to initiate the reaction. The mix was vortexed for 12 seconds at 1000 rpm and incubated at 37° C. The incubation mixture (250 mL) contained 1 mg/mL HLM, 1 mmol/L NADPH and […].
The reaction was quenched by transferring 20 mL of the incubation mixture at 0.5, 5, 10, 15, 20 and 30 minutes into the quenching plate containing 100 mL of cold stop solution (acetonitrile containing internal standards). The plate was vortexed at 800 rpm for 2 minutes.
The quenching plates were centrifuged for 20 minutes at 4000 rpm and 4° C. 40 mL of the supernatant was transferred into a 96-well analysis plate containing 160 mL of water. The analysis plate was shaken at 1000 rpm for 2 minutes and the samples analysed by LC-MS/MS.
Peak areas were determined from extracted ion chromatograms. Percent parent remaining was calculated from peak area of test compound. The slope value, k, was determined by linear regression of the natural logarithm of percent parent remaining versus incubation time. The in vitro half-life (t1/2) was determined from the slope value by the equation: […]
Conversion of the in vitro half-life (min) into in vitro CLint (mL/min/mg proteins) was completed using the equation: […]

[3] = system: HEL cells; assay: Proliferation assay, HEL control cell line (CellTiter-Glo, 7 days); format: cell-based, human; conditions: Homo sapiens, HEL, 168 h
Experimental: as §1, §2, §3, §4, §5

[4] = system: OCI-AML3 cells; assay: Proliferation assay, OCI-AML3 (CellTiter-Glo, 7 days); format: cell-based, human; conditions: Homo sapiens, OCI-AML-3, 168 h
Experimental: as §1, §2, §3, §4, §5

[5] = system: MV4;11 cells; assay: Proliferation assay, MV4;11 (CellTiter-Glo, 7 days); format: cell-based, human; conditions: Homo sapiens, MV4-11, 168 h, read-out: MV-4-11 IC50
Experimental: as §1, §2, §3, §4, §5

[6] = target: hERG (Homo sapiens (Human), UniProt Q12809); assay: hERG assay 1 (standard), SyncroPatch 384PE; format: cell-based; conditions: CHO cells, room temperature, up to 40 uM
Sequence of hERG (Q12809 whole entry): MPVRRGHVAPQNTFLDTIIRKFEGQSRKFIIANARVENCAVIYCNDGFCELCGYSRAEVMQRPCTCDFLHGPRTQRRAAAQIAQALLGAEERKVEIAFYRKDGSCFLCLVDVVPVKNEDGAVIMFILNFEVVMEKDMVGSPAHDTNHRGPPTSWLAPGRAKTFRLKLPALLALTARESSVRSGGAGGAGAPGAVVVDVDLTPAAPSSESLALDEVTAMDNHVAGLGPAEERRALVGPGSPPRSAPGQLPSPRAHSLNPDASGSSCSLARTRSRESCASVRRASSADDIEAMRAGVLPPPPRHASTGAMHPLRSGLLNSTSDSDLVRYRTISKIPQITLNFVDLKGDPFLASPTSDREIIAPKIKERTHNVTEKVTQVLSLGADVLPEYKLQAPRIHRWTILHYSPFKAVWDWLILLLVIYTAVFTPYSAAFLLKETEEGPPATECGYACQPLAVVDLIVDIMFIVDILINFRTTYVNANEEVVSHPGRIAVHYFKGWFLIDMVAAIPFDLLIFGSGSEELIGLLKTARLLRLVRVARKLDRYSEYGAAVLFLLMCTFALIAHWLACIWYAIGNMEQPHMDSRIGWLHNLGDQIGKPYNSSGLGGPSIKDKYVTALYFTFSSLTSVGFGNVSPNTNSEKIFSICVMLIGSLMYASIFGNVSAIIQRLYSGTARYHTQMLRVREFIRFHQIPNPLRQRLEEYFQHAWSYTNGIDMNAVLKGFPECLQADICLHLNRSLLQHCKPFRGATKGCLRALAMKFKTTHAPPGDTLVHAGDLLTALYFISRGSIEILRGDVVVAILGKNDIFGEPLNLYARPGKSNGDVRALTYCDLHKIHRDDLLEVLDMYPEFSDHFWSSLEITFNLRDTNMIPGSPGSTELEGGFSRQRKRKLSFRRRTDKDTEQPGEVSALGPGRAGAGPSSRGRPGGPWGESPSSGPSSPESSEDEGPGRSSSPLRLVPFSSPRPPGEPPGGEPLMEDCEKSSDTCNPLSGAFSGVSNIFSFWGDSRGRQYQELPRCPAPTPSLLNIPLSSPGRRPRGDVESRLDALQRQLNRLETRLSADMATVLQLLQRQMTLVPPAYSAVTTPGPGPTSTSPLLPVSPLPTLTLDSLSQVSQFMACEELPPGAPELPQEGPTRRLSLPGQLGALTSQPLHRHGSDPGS
Experimental: Experiments were performed on the SyncroPatch 384PE (Nanion Technologies) high throughput patch clamp platform at room temperature and used medium resistance chips with 4 patch holes per site. hERG-expressing Chinese hamster ovary K1 (CHO) cell line was used in assay-ready format and kept in liquid nitrogen until use. 2 vials of cells (10×10^6 cells per vial) were thawed and added to 20 ml Hepes-buffered saline solution (HBSS). HBSS comprised 140 mM NaCl, 4 mM KCl, 10 mM HEPES and 5 mM Glucose (pH 7.4). The internal patch clamp solution was KF 120 mM, KCl 20 mM, HEPES 10 mM, EGTA 10 mM, and 25 μM Escin (pH 7.2). After the initial sealing process was complete, a seal enhancer solution comprising HBSS supplemented with 10 mM CaCl2 and 1 mM MgCl2 was applied to cells. The external solution was then exchanged (4 times) for external patch clamp solution comprising NaCl 80 mM, KCl 4 mM, HEPES 10 mM, CaCl2 2 mM, MgCl2 1 mM, glucose 5 mM, and NMDG 60 mM (pH7.4). All compounds were dispensed from initial 10 mM DMSO stocks. An industry standard +60/−40 mV voltage protocol was applied every 15 seconds. Compounds were tested in a 6-point cumulative assay (final DMSO concentration 0.33%), with a concentration range of 139 nM to 40 uM. Data were analyzed in Genedata Screener®. IC50 values were determined by plotting % inhibition versus log compound concentration and using a one site dose response model. Only wells that passed acceptance criteria for this platform were used in this analysis (30 MegaOhm seal resistance, Z prime >0.4 and current size >0.2 nA).

[7] = target: muscarinic M2 receptor (Homo sapiens (Human), UniProt P08172); assay: Muscarinic M2 receptor binding assay (assay 1); conditions: [3H]AF-DX 384 2 nM, Cheng Prusoff
Sequence of muscarinic M2 receptor (P08172 whole entry): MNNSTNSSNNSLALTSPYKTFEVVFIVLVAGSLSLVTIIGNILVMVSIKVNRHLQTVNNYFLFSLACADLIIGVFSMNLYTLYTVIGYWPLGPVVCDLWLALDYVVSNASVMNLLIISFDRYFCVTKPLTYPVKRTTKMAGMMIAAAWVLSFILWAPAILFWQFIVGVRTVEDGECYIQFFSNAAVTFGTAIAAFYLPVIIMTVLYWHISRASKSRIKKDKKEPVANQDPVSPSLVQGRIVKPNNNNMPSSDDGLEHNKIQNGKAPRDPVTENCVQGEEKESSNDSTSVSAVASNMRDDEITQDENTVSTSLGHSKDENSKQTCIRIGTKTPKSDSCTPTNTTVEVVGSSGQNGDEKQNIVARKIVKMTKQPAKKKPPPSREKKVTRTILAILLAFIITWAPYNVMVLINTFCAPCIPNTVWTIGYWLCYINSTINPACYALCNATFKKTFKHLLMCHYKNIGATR
Experimental: Cell membrane homogenates (60 μg protein) were incubated for 60 minutes at 22° C. with 2 nM [3H]AF-DX 384 in the absence or presence of the test compound in a buffer containing 50 mM Tris-HCl (pH 7.4), 120 mM NaCl, 5 mM KCl, 5 mM MgCl2, and 1 mM EDTA. Nonspecific binding was determined in the presence of 1 μM atropine. Following incubation, the samples were filtered rapidly under vacuum through glass fiber filters (GF/B, Packard) presoaked with 0.3% PEI and rinsed several times with ice-cold 50 mM Tris-HCl using a 96-sample cell harvester (Unifilter, Packard). The filters were dried then counted for radioactivity in a scintillation counter (Topcount, Packard) using a scintillation cocktail (Microscint 0, Packard). The results were expressed as a percent inhibition of the control radioligand specific binding, from which the Ki was calculated. Data were analyzed using software developed at Cerep (Hill software) and validated by comparison with data generated by the commercial software SigmaPlot®4.0 for Windows® (© 1997 by SPSS Inc.). The inhibition constant, Ki, was calculated using the Cheng Prusoff equation:
where L=concentration of ligand in the assay, and Kd=affinity of the ligand for the receptor. The standard reference compound was methoctramine, which was tested in each experiment at several concentrations to obtain a competition curve from which its IC50 was calculated.

Row | Structure (SMILES) | IC50 [1] | HLM CLint [2] | IC50 [3] | IC50 ([1]; Homo sapiens, MOLM-13, 168 h) | microsomal CLint at 1 µM ([2]; pH 7.4, HLM CLint) | IC50 [4] | IC50 [5] | IC50 [6] | microsomal CLint at 1 µM ([2]; pH 7.4, 1 mg/mL HLM, NADPH, read-out: HLM CLint) | Ki [7]
1 | Cc1c(C(=O)[C@@H]2CCN(C(=O)[C@H]3NC[C@@H]4C[C@@H]43)[C@@H](C)C2)c2ccncc2n1-c1ccc(F)cc1C(=O)N(CC(F)(F)F)C(C)C (single isomer, unassigned) [Example 53-1, 2-(3-((2R*,4S*)-1-((1S,2S,5R)-3-Azabicyclo[3.1.0]hexane-2-carbonyl)-2-methylpiperidine-4-carbonyl)-2-methyl-1H-pyrrolo[2,3-c]pyridin-1-yl)-5-fluoro-N-isopropyl-N-(2,2,2-trifluoroethyl)benzamide] | 3270 nM | 116 µL/min/mg | > 10000 nM |  |  |  |  |  |  | 
2 | CC(C)c1ccccc1-c1cc(F)ccc1-n1cc(C(=O)C2CCN(C(=O)[C@H]3N[C@@H]4CC[C@H]3C4)CC2)c2ccncc21 [Example 39, (1-((1R,3S,4S)-2-Azabicyclo[2.2.1]heptane-3-carbonyl)piperidin-4-yl)(1-(5-fluoro-2′-isopropyl-[1,1′-biphenyl]-2-yl)-1H-pyrrolo[2,3-c]pyridin-3-yl)methanone] |  |  | 6900 nM | 65 nM | 259 µL/min/mg | 47 nM | 31 nM |  |  | 
3 | Cc1c(C(=O)C2CCN(C(=O)[C@@H]3CC[C@@H](C)N3)CC2)c2ccncc2n1-c1ccc(F)cc1C(=O)N(C(C)C)C(C)C [Example 61, 5-Fluoro-N,N-diisopropyl-2-(2-methyl-3-(1-((2S,5R)-5-methylpyrrolidine-2-carbonyl)piperidine-4-carbonyl)-1H-pyrrolo[2,3-c]pyridin-1-yl)benzamide] |  |  | > 10000 nM | 92 nM | 83 µL/min/mg |  | 114 nM | > 40000 nM |  | 
4 | CC(C)N(C(=O)c1cc(F)ccc1-n1cc(C(=O)C2CN(C(=O)[C@H]3N[C@@H]4CC[C@H]3C4)C2)c2ccnnc21)C(C)C [Example 14, 2-(5-(1-((1R,3S,4S)-2-Azabicyclo[2.2.1]heptane-3-carbonyl)azetidine-3-carbonyl)-7H-pyrrolo[2,3-c]pyridazin-7-yl)-5-fluoro-N,N-diisopropylbenzamide 1·formic acid] |  |  | > 10000 nM | 476 nM | 38 µL/min/mg | 626 nM | 345 nM |  |  | 
5 | Cc1c(C(=O)C2CCN(C(=O)[C@@H]3CC[C@H](C)N3)CC2)c2ccncc2n1-c1ccc(F)cc1C(=O)N(C(C)C)C(C)C [Example 60, 5-Fluoro-N,N-diisopropyl-2-(2-methyl-3-(1-((2S,5S)-5-methylpyrrolidine-2-carbonyl)piperidine-4-carbonyl)-1H-pyrrolo[2,3-c]pyridin-1-yl)benzamide] |  |  | > 10000 nM | 71 nM | 106 µL/min/mg |  | 88 nM | > 40000 nM |  | 
6 | CCN(C(=O)c1cc(F)ccc1-n1c(C)c(C(=O)C2CCN(C(=O)[C@@H]3CCC(C)(C)N3)CC2)c2ccncc21)C(C)C (single isomer, unassigned) [Example 50-1] | 2070 nM | 183 µL/min/mg | > 10000 nM |  |  |  |  |  |  | 
7 | Cc1c(C(=O)C2CCN(C(=O)[C@@H]3CCC4(CC4)N3)CC2)c2ccncc2n1-c1ccc(F)cc1C(=O)N1[C@H](C)COC[C@H]1C (single isomer, unassigned) [Example 58-1] | > 10000 nM |  | > 10000 nM |  |  |  |  |  | 128 µL/min/mg | 
8 | CCN(C(=O)c1cc(F)ccc1-n1cc(C(=O)C2CCN(C(=O)[C@H]3NC4CCC3CC4)CC2)c2ccncc21)C(C)C [Example 29, (S)-2-(3-(1-(2-Azabicyclo[2.2.2]octane-3-carbonyl)piperidine-4-carbonyl)-1H-pyrrolo[2,3-c]pyridin-1-yl)-N-ethyl-5-fluoro-N-isopropylbenzamide] |  |  | > 10000 nM | 58 nM | 26 µL/min/mg |  | 57 nM | > 40000 nM |  | 200 nM
9 | CC(C)N(C(=O)c1cc(F)ccc1-n1cc(C(=O)[C@@H]2CCCN(C(=O)[C@H]3N[C@@H]4CC[C@H]3C4)CC2)c2ccncc21)C(C)C (relative stereo) [Example 45, 2-(3-((R*)-1-((1R,3S,4S)-2-Azabicyclo[2.2.1]heptane-3-carbonyl)azepane-4-carbonyl)-1H-pyrrolo[2,3-c]pyridin-1-yl)-5-fluoro-N,N-diisopropylbenzamide 1·formic acid] |  |  | > 10000 nM | 109 nM | 139 µL/min/mg |  |  |  |  | 
